Like-named read-outs stand apart in the source and are kept apart here.

This is an account of results in publication PMC9822135, “Chemical Constituents from the Leaves of Ligustrum robustum and Their Bioactivities” (Molecules, 2023).

Assay [1] in a line: ABTS radical scavenging assay. Particulars: mean ± SD (n = 3).
For a further assay, the system named is α-amylase. The assay can be described thus: α-amylase inhibitory activity assay (starch, DNS reagent). Particulars: mean ± SD (n = 3). In kind it is biochemical. As for the experimental part:
S1.3. Determination of α-amylase inhibitory activity
Phosphate buffer (20 mM, pH 6.9, containing 6 mM NaCl) was used as the […]
µL, 1%, w/v) were mixed and incubated in a 96-well microplate at 37 °C for 10 min.
Then, α-amylase solution (50 µL, 0.2 U/mL) was added and the compound was incubated at 37 °C for an additional 10 min. The reaction was stopped by addition of […]
microplate was immediately heated in 95 °C water bath for 10 min. When the reaction solution cooled to room temperature, allsamples were diluted by adding distilled water (50 µL), and then their absorbance was measured using a microplate reader at […]
starch solution) at 540 nm, thus the inhibitory activity was calculated as (Acontrol-Asample)/Acontrol×100%, in which Asample was the absorbance of the sample and Acontrol was the absorbance of the phosphate buffer control without test samples. Acarbose was used as the positive control.

The target in assay [2] is fatty acid synthase (FAS) (Gallus gallus, UniProt P12276). As to the kind of experiment: FAS inhibitory activity assay (NADPH absorbance at 340 nm).
Procedure: Determination of FAS inhibitory activity
diluted with potassium phosphate buffer (0.1 M, pH 7.0). Sample solution (100 L, 20-2000 μM, 37 °C) and FAS substrates (1.8 mL, 37 °C) were mixed in a cuvette, and then FAS solution (100 L, 37 °C, isolated from chicken liver and kept in ice-bath before use) was added. The absorbance of reaction compound was monitored by a
UV-vis spectrophotometer at 340 nm in 1 min. The inhibitory effect was calculated by the following equation: FAS inhibition (%) = (Acontrol- Asample)/Acontrol×100%, where Acontrolrepresented the FAS activity in the control group (phosphate buffer instead of sample solution), Asamplerepresented the FAS activity in the sample groups. The FAS activity was calculated as (A0 - A1)/1 min, in which A0 was the absorbance of the
reaction compound when the FAS was added, and A1 was the absorbance of the
reaction compound after reaction 1 min. Orlistat was used as the positive control.
FAS substrates: 0.1 M potassium phosphate buffer (pH 7.0), 1 mM ethylene-diaminetetraacetic acid (EDTA), 1 mM dithiothreitol, 3 M acetyl-coenzyme A, 10 M methylmalonyl coenzyme A, 35 M NADPH.
Assay [3] in a line: DPPH radical scavenging assay. The settings on record: mean ± SD (n = 3), NA = no activity. As for the experimental part: S1.4. DPPH radical scavenging assay
The DPPH radical scavenging assay was used to evaluate the antioxidant activity of compounds 1-10. In a 96-well microplate, 100 µL of DPPH solution (200 µM in ethanol) was added to 100 µL sample in ethanol at graded concentrations ranging from 7 to 500 µM. The compound was incubated in the dark at room temperature for […]
In general terms: DPPH is a stable violet radical that fades when it is reduced.

The next assay relates to α-glucosidase. As to the kind of experiment: α-glucosidase inhibitory activity assay (pNPG substrate). In kind it is biochemical, yeast. Particulars: for α-Glucosidase Inhibition at 0.1 mM: mean ± SD (n = 3), NA = no activity; for α-glucosidase inhibitory activity (in words): compared with positive control acarbose. The protocol: S1. Determination of bioactivities […]
S1.2. Determination of α-glucosidase inhibitory activity […]
diluted with phosphate buffer (0.1 M, pH 6.8). […]
and 4-nitrophenyl α-D-glucopyranoside (pNPG) solution (50 µL, 5 mM) were mixed
(1 picture or pasted object on this page, not shown here) […]
and incubated in a 96-well microplate at37 °C for 5 min. α-Glucosidase from yeast (50 µL, 0.2 U/mL) was added and incubated at 37 °C for another 30 min. Finally, 50 µL of Na2CO3 (1M) was added to terminate the reaction. The absorbance of compound was measured using a microplate reader at a wavelength 405 nm. The background absorbance (phosphate buffer instead of substrate pNPG) of all samples […]
calculated by the following equation: α-glucosidase inhibition (%) = (Acontrol-Asample)/Acontrol×100%, where Acontrolrepresented the absorbance of phosphate buffer control without testsamples, Asample represented the absorbance of test samples.
Acarbose was used as the positive control. […]

Chain of fatty acid synthase (FAS) (P12276 2-2512 limits assumed): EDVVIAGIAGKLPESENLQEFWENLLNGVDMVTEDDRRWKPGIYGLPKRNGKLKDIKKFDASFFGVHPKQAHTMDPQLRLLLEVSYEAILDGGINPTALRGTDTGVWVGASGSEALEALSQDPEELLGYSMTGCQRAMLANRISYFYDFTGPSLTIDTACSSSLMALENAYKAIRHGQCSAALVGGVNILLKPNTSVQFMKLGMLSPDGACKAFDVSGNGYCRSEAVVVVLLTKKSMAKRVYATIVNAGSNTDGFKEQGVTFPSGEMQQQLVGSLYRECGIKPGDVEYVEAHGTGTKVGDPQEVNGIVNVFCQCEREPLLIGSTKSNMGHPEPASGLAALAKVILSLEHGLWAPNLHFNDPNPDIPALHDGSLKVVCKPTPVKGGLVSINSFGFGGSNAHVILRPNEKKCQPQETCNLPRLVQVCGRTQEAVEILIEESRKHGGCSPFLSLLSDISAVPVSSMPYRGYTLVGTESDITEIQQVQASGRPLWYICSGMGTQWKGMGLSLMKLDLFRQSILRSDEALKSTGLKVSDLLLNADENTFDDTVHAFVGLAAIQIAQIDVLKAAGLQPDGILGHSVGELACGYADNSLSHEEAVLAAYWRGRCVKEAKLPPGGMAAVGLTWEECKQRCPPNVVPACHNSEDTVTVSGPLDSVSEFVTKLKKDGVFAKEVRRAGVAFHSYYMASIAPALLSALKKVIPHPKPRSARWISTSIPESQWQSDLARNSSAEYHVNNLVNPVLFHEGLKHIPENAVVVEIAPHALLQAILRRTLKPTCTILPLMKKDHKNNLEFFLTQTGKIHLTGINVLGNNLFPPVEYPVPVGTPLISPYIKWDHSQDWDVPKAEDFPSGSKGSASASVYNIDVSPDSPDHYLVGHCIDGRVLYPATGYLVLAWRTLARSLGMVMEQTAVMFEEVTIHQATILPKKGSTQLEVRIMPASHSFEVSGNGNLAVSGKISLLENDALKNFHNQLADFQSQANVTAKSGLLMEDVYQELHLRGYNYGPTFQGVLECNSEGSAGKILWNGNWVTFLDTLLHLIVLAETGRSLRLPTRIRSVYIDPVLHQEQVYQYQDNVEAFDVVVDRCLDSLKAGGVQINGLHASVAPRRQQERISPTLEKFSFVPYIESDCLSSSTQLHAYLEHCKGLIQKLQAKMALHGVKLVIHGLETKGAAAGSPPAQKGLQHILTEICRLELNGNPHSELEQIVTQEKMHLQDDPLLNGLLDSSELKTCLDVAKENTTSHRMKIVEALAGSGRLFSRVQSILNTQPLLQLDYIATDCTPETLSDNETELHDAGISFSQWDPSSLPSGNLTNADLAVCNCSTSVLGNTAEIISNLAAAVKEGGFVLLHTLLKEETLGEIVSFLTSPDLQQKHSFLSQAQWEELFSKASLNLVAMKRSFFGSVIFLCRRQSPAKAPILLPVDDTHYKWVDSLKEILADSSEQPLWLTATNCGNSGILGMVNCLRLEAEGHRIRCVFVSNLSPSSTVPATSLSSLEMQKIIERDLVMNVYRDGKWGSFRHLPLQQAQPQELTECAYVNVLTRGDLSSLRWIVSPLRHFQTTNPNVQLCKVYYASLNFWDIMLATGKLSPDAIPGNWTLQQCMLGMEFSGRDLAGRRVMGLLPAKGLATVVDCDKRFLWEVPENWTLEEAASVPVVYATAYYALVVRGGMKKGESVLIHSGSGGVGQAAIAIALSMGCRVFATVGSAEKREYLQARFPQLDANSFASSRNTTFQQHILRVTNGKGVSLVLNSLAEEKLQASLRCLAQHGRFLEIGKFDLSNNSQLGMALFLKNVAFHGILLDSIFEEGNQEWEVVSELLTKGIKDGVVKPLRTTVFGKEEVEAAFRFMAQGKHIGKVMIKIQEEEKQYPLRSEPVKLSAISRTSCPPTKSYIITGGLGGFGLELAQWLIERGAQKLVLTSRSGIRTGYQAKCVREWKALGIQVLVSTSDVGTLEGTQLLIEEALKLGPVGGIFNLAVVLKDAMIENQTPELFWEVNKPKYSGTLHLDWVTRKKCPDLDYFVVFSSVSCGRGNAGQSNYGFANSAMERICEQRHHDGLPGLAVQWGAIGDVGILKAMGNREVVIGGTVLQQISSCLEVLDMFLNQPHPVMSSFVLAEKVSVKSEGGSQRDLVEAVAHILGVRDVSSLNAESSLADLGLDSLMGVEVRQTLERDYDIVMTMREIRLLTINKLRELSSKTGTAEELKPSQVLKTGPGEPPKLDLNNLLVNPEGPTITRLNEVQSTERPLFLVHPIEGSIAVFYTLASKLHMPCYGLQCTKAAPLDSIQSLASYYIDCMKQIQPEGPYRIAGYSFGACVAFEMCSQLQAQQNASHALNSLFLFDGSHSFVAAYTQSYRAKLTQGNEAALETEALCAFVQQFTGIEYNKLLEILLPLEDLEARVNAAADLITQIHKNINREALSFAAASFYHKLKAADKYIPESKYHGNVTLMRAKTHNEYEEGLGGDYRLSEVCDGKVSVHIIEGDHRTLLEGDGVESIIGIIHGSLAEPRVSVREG

What is called IC50 is the concentration at which inhibition is half-maximal. On to `CC/C=C/CCO[C@@H]1O[C@H](COC(=O)C=Cc2ccc(O)cc2)[C@@H](O)[C@H](O[C@@H]2O[C@@H](C)[C@H](O)[C@@H](O)[C@H]2O)[C@H]1O` [Compound 1], for which the IC50 in assay [1] was determined as 5.65 ± 0.19 µM. Moreover, the “α-Amylase Inhibition at 0.1 mM” value in the assay on α-amylase was 27.9 ± 6.4 bc %.
For the compound `C=C(C)CO[C@@H]1O[C@H](COC(=O)C=Cc2ccc(O)cc2)[C@@H](O)[C@H](O[C@@H]2O[C@@H](C)[C@H](O)[C@@H](O)[C@H]2O)[C@H]1O` [Compound 2], the IC50 in assay [2] (read-out: FAS IC50, mean ± SD (n = 3), NA = no activity, FAS isolated from chicken liver) came out at 4.1 ± 0.12 µM; in assay [1] it was 103 ± 4 µM. The “α-Amylase Inhibition at 0.1 mM” value with α-amylase is listed as 24.0 ± 1.5 bc %.
Regarding `C[C@@H]1O[C@@H](O[C@H]2[C@H](O)[C@@H](COC(=O)C=Cc3ccc(O)cc3)OC(O)[C@@H]2O)[C@H](O)[C@H](O)[C@H]1O` (some centres unmarked) [Compound 3], the IC50 in assay [2] was 6.25 ± 0.2 µM; in assay [1] it was 12.04 ± 0.08 µM; in assay [3], more than 250 µM. Besides, in the assay with α-amylase, the “α-Amylase Inhibition at 0.1 mM” value is listed as 29.8 ± 1.8 bc %.
Take `CC1OC(OC2C(O)C(O)OC(CO)C2OC(=O)C=Cc2ccc(O)cc2)C(O)C(O)C1O` (centres unmarked) [Compound 4]: the IC50 amounted to 10.5 ± 0.32 µM in assay [2] and 11.2 ± 0.4 µM in assay [1]. Moreover, in the assay on α-amylase, the “α-Amylase Inhibition at 0.1 mM” value came out at 25.6 ± 1.0 bc %.
Consider `C[C@@H]1O[C@@H](O[C@@H]2[C@@H](O)[C@@H](O)[C@H](O[C@H]3[C@H](O)[C@@H](COC(=O)C=Cc4ccc(O)cc4)OC(O)[C@@H]3O)O[C@H]2C)[C@H](O)[C@H](O)[C@H]1O` (some centres unmarked) [Compound 5], for which the IC50 in assay [2] is 9.75 ± 0.24 µM; in assay [1] it was 15.5 ± 0.36 µM; in assay [3], more than 250 µM. In addition, in the assay on α-amylase, the “α-Amylase Inhibition at 0.1 mM” value is recorded as 26.5 ± 4.0 bc %.
Take `C[C@@H]1O[C@@H](O[C@H]2[C@H](OC(=O)/C=C/c3ccc(O)c(O)c3)[C@@H](CO)OC(O)[C@@H]2O)[C@H](O)[C@H](O)[C@H]1O` (stereo partly drawn) [Compound 6, 3-O-(α-L-rhamnopyranosyl)-4-O-(trans-caffeoyl)-D-glucopyranose]: the IC50 in assay [1] came to 17 ± 0.45 µM; in assay [3], 46.7 ± 1.58 µM. For the same compound, in the assay with α-amylase, the “α-Amylase Inhibition at 0.1 mM” value turned out to be 23.0 ± 0.7 c %.
`O=c1c(O[C@@H]2O[C@H](CO)[C@@H](O)[C@H](O)[C@H]2O)c(-c2ccc(O)cc2)oc2cc(O[C@@H]3O[C@H](CO)[C@@H](O)[C@H](O)[C@H]3O)cc(O)c12` [Compound 7, kaempferol 3,7-diglucoside] registered an IC50 in assay [2] of 8.1 ± 0.37 µM. Moreover, the concentration for half-maximal inhibition (IC50) in assay [1] amounted to 9.34 ± 0.04 µM. In the assay on α-glucosidase, the “α-Glucosidase Inhibition at 0.1 mM” value was found to be 15.6 ± 0.9 c %; the “α-glucosidase inhibitory activity (in words)” value is “moderate and weaker than acarbose”. For the same compound, the “α-Amylase Inhibition at 0.1 mM” value in the assay with α-amylase is listed as 31.8 ± 0.5 b %.
`COc1cc([C@H]2c3cc(O[C@@H]4O[C@H](CO)[C@@H](O)[C@H](O)[C@H]4O)c(OC)cc3C[C@@](O)(CO)[C@@H]2CO)ccc1O` [Compound 8, (+)-cycloolivil 6-O-β-D-glucopyranoside]: the concentration for half-maximal inhibition (IC50) in assay [2] is 8.01 ± 0.26 µM; in assay [1] it was 29.1 ± 1.11 µM; in assay [3], more than 250 µM. Moreover, the “α-Amylase Inhibition at 0.1 mM” value with α-amylase turned out to be 28.5 ± 2.7 bc %.
For `COC(=O)C=Cc1ccc(O)cc1` [Compound 9], the IC50 in assay [2] was 15.4 ± 0.42 µM; in assay [1] it was 8.78 ± 0.09 µM; in assay [3], more than 250 µM. In the assay with α-glucosidase, the “α-Glucosidase Inhibition at 0.1 mM” value is recorded as 33.8 ± 2.9 b %. In addition, the “α-glucosidase inhibitory activity (in words)” value with α-glucosidase is “moderate and weaker than acarbose”. In addition, the “α-Amylase Inhibition at 0.1 mM” value in the assay with α-amylase was 29.5 ± 0.6 bc %.
In assay [1], `OCCc1ccc(O)cc1` [Compound 10, 4-hydroxyphenylethanol] yielded an IC50 of 3.41 ± 0.08 µM. For the same compound, the “α-Amylase Inhibition at 0.1 mM” value in the assay with α-amylase was 16.2 ± 5.0 d %.
Consider `O=C1O[C@H]([C@@H](O)CO)C(O)=C1O` [L-(+)-ascorbic acid, reference compound], for which the concentration for half-maximal inhibition (IC50) came to 10.1 ± 0.19 µM in assay [1] and 13.66 ± 0.13 µM in assay [3].
